Target: hMC2 receptor (Homo sapiens, UniProt Q01718)
Experiment: hMC2 membrane binding assay ([125I]ACTH (1-39) Tyr23, SPA)
Design: scale not given here
Conditions: crude hMC2R membranes from CRE-bla-CHO-K1 cells expressing hMC2 receptor and hMRAP; [125I]ACTH (1-39) Tyr23 0.2 nM; 1.5 hours at room temperature; read-out: MC2R binding potency
Procedure, shortened: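 Ki comes from non-linear regression of SPA scintillation counts. Displacement of 0.2 nM [125I]ACTH(1-39) Tyr23 by compound dose series (usually 0–10,000 nM final) ran 1.5 h at room temperature. Membranes came from CHO-K1 CRE-bla cells stably expressing hMC2R plus hMRAP, bead-coupled in pH 7.4 buffer with 0.2% BSA.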

Sequence of hMC2 receptor (Q01718 whole entry): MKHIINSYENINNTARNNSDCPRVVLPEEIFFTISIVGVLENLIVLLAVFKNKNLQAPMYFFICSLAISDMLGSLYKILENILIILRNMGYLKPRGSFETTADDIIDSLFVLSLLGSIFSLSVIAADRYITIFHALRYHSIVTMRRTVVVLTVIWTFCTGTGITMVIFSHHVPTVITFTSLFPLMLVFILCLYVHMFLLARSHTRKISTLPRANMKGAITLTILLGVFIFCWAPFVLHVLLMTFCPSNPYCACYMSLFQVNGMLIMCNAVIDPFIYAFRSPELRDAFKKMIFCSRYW
Sequence of hMC2 receptor (Q8TCY5 whole entry partner): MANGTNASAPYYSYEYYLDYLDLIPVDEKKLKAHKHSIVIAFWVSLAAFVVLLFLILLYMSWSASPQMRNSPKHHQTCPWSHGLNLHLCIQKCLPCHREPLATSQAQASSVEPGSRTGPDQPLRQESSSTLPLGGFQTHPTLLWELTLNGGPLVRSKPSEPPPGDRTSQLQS

Row | SMILES | Ki [nM]
1 | CCOc1ncccc1-c1ccc(N2CCN(C(=O)c3ccc(F)cc3C(F)(F)F)C[C@H]2CC)c(CNCCNC)c1 [Compound 2-21, {[5-(2-ethoxypyridin-3-yl)-2-[(2R)-2-ethyl-4-[4-fluoro-2-(trifluoromethyl)benzoyl]piperazin-1-yl]phenyl]methyl}[2-(methylamino)ethyl]amine] | < 10
2 | CCOc1ncccc1-c1ccc(N2CCN(C(=O)c3ccc(Cl)cc3Cl)C[C@H]2CC)c(C(=O)NCCNC)c1F [Compound 1-156, 6-[(2R)-4-(2,4-dichlorobenzoyl)-2-ethylpiperazin-1-yl]-3-(2-ethoxypyridin-3-yl)-2-fluoro-N-[2-(methylamino)ethyl]benzamide] | < 10
3 | CCOc1ncccc1-c1ccc(N2CCN(C(=O)c3ccc(F)cc3C(F)(F)F)C[C@H]2CC)c(C(=O)NCCNC)n1 [Compound 1-136, 2′-ethoxy-5-[(2R)-2-ethyl-4-[4-fluoro-2-(trifluoromethyl)benzoyl]piperazin-1-yl]-N-[2-(methylamino)ethyl]-[2,3′-bipyridine]-6-carboxamide] | < 10
4 | CCOc1ccc(C(=O)N2CCN(c3ccc(-c4cccnc4OCC)nc3C(=O)NCC3CN(C)C3)[C@H](CC)C2)c(C(F)(F)F)n1 [Compound 1-249, 2′-ethoxy-5-[(2R)-4-[6-ethoxy-2-(trifluoromethyl)pyridine-3-carbonyl]-2-ethylpiperazin-1-yl]-N-[(1-methylazetidin-3-yl)methyl]-[2,3′-bipyridine]-6-carboxamide] | < 10
5 | CCOc1ccccc1-c1ccc(N2CCN(C(=O)N3CCc4cccc(C(F)(F)F)c43)C[C@H]2CC)c(C(=O)N[C@H]2CCN(C)C2)n1 [Compound 1-402, 6-(2-ethoxyphenyl)-3-[(2R)-2-ethyl-4-[7-(trifluoromethyl)-2,3-dihydro-1H-indole-1-carbonyl]piperazin-1-yl]-N-[(3S)-1-methylpyrrolidin-3-yl]pyridine-2-carboxamide] | < 10

Continued, values first:

Row | Ki [nM] | SMILES
6 | < 10 | CCOc1ccccc1-c1ccc(N2CCN(C(=O)C3(C(F)(F)F)CCCC3)C[C@H]2CC)c(C(=O)N[C@@H]2CCN(C)C2)n1 [Compound 1-341, 6-(2-ethoxyphenyl)-3-[(2R)-2-ethyl-4-[1-(trifluoromethyl)cyclopentanecarbonyl]piperazin-1-yl]-N-[(3R)-1-methylpyrrolidin-3-yl]pyridine-2-carboxamide]
7 | < 10 | CCOc1ccc(C(=O)N2CCN(c3ccc(-c4cccnc4OCC)nc3C(=O)N[C@@H]3CCN(C)C3)[C@H](CC)C2)c(C(F)(F)F)n1 [Compound 1-243, 2′-ethoxy-5-[(2R)-4-[6-ethoxy-2-(trifluoromethyl)pyridine-3-carbonyl]-2-ethylpiperazin-1-yl]-N-[(3R)-1-methylpyrrolidin-3-yl]-[2,3′-bipyridine]-6-carboxamide]
8 | < 10 | CCOc1ncccc1-c1ccc(N2CCN(C(=O)C34CCC(C(F)(F)F)(CC3)CC4)C[C@H]2CC)c(C(=O)N[C@@H]2CCN(C)C2)n1 [Compound 1-282, 2′-ethoxy-5-[(2R)-2-ethyl-4-[4-(trifluoromethyl)bicyclo[2.2.2]octane-1-carbonyl]piperazin-1-yl]-N-[(3R)-1-methylpyrrolidin-3-yl]-[2,3′-bipyridine]-6-carboxamide]
9 | < 10 | CCOc1ncccc1-c1ccc(N2CCN(C(=O)c3ccc(OC)cc3C(F)(F)F)C[C@H]2CC)c(C(=O)NCCNC)c1F [Compound 1-155, 3-(2-ethoxypyridin-3-yl)-6-[(2R)-2-ethyl-4-[4-methoxy-2-(trifluoromethyl)benzoyl]piperazin-1-yl]-2-fluoro-N-[2-(methylamino)ethyl]benzamide]
10 | < 10 | CCOc1ncccc1-c1ccc(N2CCN(C(=O)C3(C(F)(F)F)CCCC3)C[C@H]2CC)c(C(=O)NC[C@H]2CCCN2C)n1 [Compound 1-333, 2′-ethoxy-5-[(2R)-2-ethyl-4-[1-(trifluoromethyl)cyclopentanecarbonyl]piperazin-1-yl]-N-{[(2R)-1-methylpyrrolidin-2-yl]methyl}-[2,3′-bipyridine]-6-carboxamide]

Source: patent US10981894B2, “Melanocortin subtype-2 receptor (MC2R) antagonists and uses thereof” (Crinetics Pharmaceuticals, Inc., priority 2018, dated 2021)
